For experiment [1], the system named is CT(a) receptor ECD alanine mutants. In words: 125I-hCT radioligand binding, CT(a) mutants. Details: species or system human. The settings on record: Ala mutation of W79, F99, D101, F102, H121, W128 and Y131; ~50 pM, 1 h, 37 °C, whole Cos-7 cells. From the text:
transfected with CT(a). […] Data are
binding observed for each peptide.
For C, D and E statistical

For experiment [2] the following is noted: Ala scan of an amylin analogue; cited from earlier work. From the text:
Of the residues impacting on peptide function only R126 contributed to amylin or CGRP function but not that of CT. R126 in the CTR/RAMP complex sits in close proximity to W84 (RAMP1) that may form an interaction with the peptide C-terminus for amylin and CGRP, and thus may contribute to the orientation of the peptide C-terminus to allow this interaction. The net contribution of the RAMP interaction is a reordering of residues in loop 5 that facilitates the peptide turn of amylin and CGRP and interaction of the C-terminus with the W84 of the RAMP, with reorientation of loop 4 residues facilitat ...

Where no end group is shown, it is not given here.

On to “^125I-hCT: hCT radioiodinated with iodination bead, purified by reverse-phase HPLC”, for which, in experiment [1], the 125I-hCT binding result is “significantly reduced”.

In the case of “V32: amylin analogue with V32 substitution, from Ala scan of ref 34 (KCNTATCATQRLANFLVHSSNNFGAILSSTNAGSNTY; ends and bridges not checked; cysteine pairing not given here; UniProt P10997 34-70, looked up, variant V32A)”, the binding result in experiment [2] is given as “abolishing binding”.

In the case of “T30: amylin analogue with T30 substitution, from Ala scan of ref 34 (KCNTATCATQRLANFLVHSSNNFGAILSSANVGSNTY; ends and bridges not checked; cysteine pairing not given here; UniProt P10997 34-70, looked up, variant T30A)”, in experiment [2], the binding entry is “abolishing binding”.

The values are drawn from article PMC4869360, “An allosteric role for receptor activity-modifying proteins in defining GPCR pharmacology” (Cell Discovery, 2016).
